Patent publication EP0075104A2, “Cephalosporin derivatives, process for their preparation, pharmaceutical compositions containing them and intermediates” (F. HOFFMANN-LA ROCHE & CO. Aktiengesellschaft, priority 1981, dated 1983)

How the values were obtained:
Escherichia coli = assay: Oral curative dose (CD50) in infected mice, Escherichia coli; format: in vivo; details: Maus, p.o., Erreger Escherichia coli, dose at which 50% of the tested mice survive
Excerpt: (§1) Die orale antimikrobielle Wirksamkeit der erwähnten Produkte kann anhand von in-vivo-Versuchen an der Maus nachgewiesen werden. Im nachstehenden bedeutet die kurative Dosis (CD50, p.o., mg/kg) diejenige perorale Dosis, bei der 50% der getesteten Mäuse überleben.
(§2) Ergebnis (CD50, p.o. mg/kg)

Klebsiella pneumoniae = assay: Oral curative dose (CD50) in infected mice, Klebsiella pneumoniae; format: in vivo; details: Maus, p.o., Erreger Klebsiella pneumoniae, dose at which 50% of the tested mice survive
Excerpt: as §1, §2

Streptococcus pyogenes = assay: Oral curative dose (CD50) in infected mice, Streptococcus pyogenes; format: in vivo; details: Maus, p.o., Erreger Streptococcus pyogenes, dose at which 50% of the tested mice survive
Excerpt: as §1, §2

in vivo = details: mouse, po
Serratia marcescens = assay: Oral curative dose (CD50) in infected mice, Serratia marcescens; format: in vivo; details: Maus, p.o., Erreger Serratia marcescens, dose at which 50% of the tested mice survive
Excerpt: as §1, §2

Structure (SMILES) | ED50 (Escherichia coli) [mg/kg] | ED50 (Klebsiella pneumoniae) [mg/kg] | ED50 (Streptococcus pyogenes) [mg/kg] | LD50 at 24 h (in vivo) [mg/kg] | ED50 (Serratia marcescens) [mg/kg]
CO/N=C(\C(=O)N[C@@H]1C(=O)N2C(C(=O)OCOC(=O)C(C)(C)C)=C(CSc3nnc(C(=O)OC)n3C)CS[C@H]12)c1csc(N)n1 [Produkt A, Methylen-(6R,7R)-7-[(Z)-2-(2-Amino-4-thiazolyl)-2-(methoxyimino)-acetamido]-3-[[[5-(methoxycarbonyl)-4-methyl-4H-1,2,4-triazol-3-yl]thio]methyl]-8-oxo-5-thia-l-azabicyclo-[4.2.0]oct-2-en-2-carboxylat-pivalat] | 0.11 | 4.4 | 1.8 | > 5000 | –
CO/N=C(\C(=O)N[C@@H]1C(=O)N2C(C(=O)OCOC(=O)C(C)(C)C)=C(CSc3nc(C(=O)OC)n(C(C(=O)OCOC(=O)C(C)(C)C)c4ccccc4)n3)CS[C@H]12)c1csc(N)n1 (stereo partly drawn) [Produkt B, Methylen-(6R,7R)-7-C(Z)-2-(2-Amino-4-thiazolyl)-2-(methoxyimino)-acetamido]-3-[[[5-(methoxycarbonyl)-1-[(DL)-α-[[(pivaloyloxy)-methoxy]carbonyl]benzyl]-1H-1,2,4-triazol-3-yl]thio]methyl]-8-oxo-5-thia-1-azabicyclo-[4.2.0]oct-2-en-2-carboxylat-pivalat] | 5.5 | > 25 | > 6 | – | > 25
CO/N=C(\C(=O)N[C@@H]1C(=O)N2C(C(=O)OCOC(=O)C(C)(C)C)=C(CSc3nc(C(=O)OC)n(-c4ccccc4)n3)CS[C@H]12)c1csc(N)n1 [Produkt C, Methylen-(6R,7R)-7-[(Z)-2-(2-Amino-4-thiazolyl)-2-(methoxyimino)-acetamido]3-[[[5-(methoxycarbonyl)-1-phenyl-lH-1,2,4-triazol-3-yl]thio]methyl]-8-oxo-5-thia-1-azabicyclo-[4.2.0]oct-2-en-2-carboxylat-pivalat] | 1.8 | > 12 | 2.4 | > 5000 | > 25
C=CCn1c(SCC2=C(C(=O)OCOC(=O)C(C)(C)C)N3C(=O)[C@@H](NC(=O)/C(=N\OC)c4csc(N)n4)[C@H]3SC2)nnc1C(=O)OC [Produkt D] | 0.11 | > 12 | 1.3 | > 5000 | 3.6
CCCCn1c(SCC2=C(C(=O)OCOC(=O)C(C)(C)C)N3C(=O)[C@@H](NC(=O)/C(=N\OC)c4csc(N)n4)[C@H]3SC2)nnc1C(=O)OC [Produkt E, Methylen-(6R,7R)-[(Z)-(2-Amino-4-thiazolyl)-2-(methoxyimino)-acetamido]-3-[[[4-(n-butyl)-5-(methoxycarbonyl)-4H-1,2,4-triazol-3-yl]-thio]methyl]-8-oxo-5-thia-1-azabicyclo[4.2.0]-oct-2-en-2-carboxylat-pivalat] | 1.1 | > 12 | 3.5 | – | 37
